Results: patent publication US20060134001A1, “Conjugated infrared fluorescent substances for detection of cell death” (priority 2002, published 2006)

Legend:
[1] = test system: mitochondria and/or endoplasmic reticulum; assay: Subcellular partitioning of dye; format: cell-based; settings: concentration-dependent
[2] = Solubility of dye in blood; settings: small molecule form
[3] = In vivo early half-life of dye
[4] = test system: vasculature of the heart; assay: Near-infrared fluorescence imaging of heart vasculature with vascular contrast agent after LAD artery ischemia; format: in vivo; settings: rat, 12.5 nmol injected, 24 hours after LAD artery ischemia; compared with 2,3,5-triphenyltetrazolium chloride staining
Excerpt: The otherwise invisible near-infrared fluorescence from indocyanine green has been pseudo-colored white prior to superimposition on the color video (anatomic) image. […] In pseudo-colored magenta are the red fluorescent microbeads injected during initial ischemia. […] The area of the heart internal to this “ring” of perfusion is termed the “area at risk”, i.e., the area of myocardium that had no blood flow during LAD ligation. […] Finally, the near-infrared fluorescence signal from injection of 25 μg of human annexin V covalently conjugated with IRDye78 (a near-infrared fluorophore) is shown pseudo-colored in green.

[5] = cited from earlier work
[6] = human annexin V; read-out: affinity (kd) for phosphatidylserine (PS); cited from earlier work
[7] = test system: apoptotic and/or necrotic cells; assay: Near-infrared fluorescence imaging of labeled annexin V in rat heart after LAD artery ischemia/reperfusion; format: in vivo; settings: 25 μg injected, imaged 24 hours after 20 minutes LAD ligation and reperfusion
Experimental: A branch of the left anterior descending (LAD) artery of the rat heart was ligated with a silk suture. During ligation, the aorta was cross-clamped and 10 μm red fluorescent microbeads were injected into the ventricle. […] After 20 minutes of ligation, the suture was removed, and the heart was permitted to re-perfuse.
The otherwise invisible near-infrared fluorescence from indocyanine green has been pseudo-colored white prior to superimposition on the color video (anatomic) image. […] In pseudo-colored magenta are the red fluorescent microbeads injected during initial ischemia. This area was well perfused during ischemia. The area of the heart internal to this “ring” of perfusion is termed the “area at risk”, i.e., the area of myocardium that had no blood flow during LAD ligation. The area of avascularity/infarct identified with indocyanine green is contained within the area at risk. Finally, the near-infrared fluorescence signal from injection of 25 μg of human annexin V covalently conjugated with IRDye78 (a near-infrared fluorophore) is shown pseudo-colored in green. The green areas, thus, represent apoptotic and/or necrotic cells, i.e., those areas within the area at risk that have actually succumbed to the ischemia. […] Presumably, this area was supplied by either diffusion or smaller collateral vessels fed by the well-perfused area.

## CN1C(=CC=C2CCCC(C=CC3=[N+](C)c4ccccc4C3(C)C)=C2Cl)C(C)(C)c2ccccc21.[O-][Cl+3]([O-])([O-])[O-] [IR-786]
[1]
  partitioning into organelles: partitions efficiently into mitochondria and/or endoplasmic reticulum

## CC1(C)C(/C=C/C=C/C=C/C=C2\N(CCCCS(=O)(=O)O)c3ccc4ccccc4c3C2(C)C)=[N+](CCCCS(=O)(=O)[O-])c2ccc3ccccc3c21 [Indocyanine green, indocyanine green]
[2]
  solubility in blood: somewhat less soluble in blood
[3]
  in vivo early half-life: shorter half-life
[4]
  vascular staining of ischemic heart: reveals an area of avascularity that corresponds to infarcted tissue

## Human annexin V: human annexin V, molecular weight 36 kd, binds phosphatidylserine; targeting moiety
[5]; in vivo
  dose at which pharmacological effects (anti-coagulant effects) begin: greater than 300 μg protein/kg
[5]; tracer doses, e.g. 10 μg protein/kg to 50 μg protein/kg, animal or human subjects
  pharmacologic or toxic side effects at tracer doses: no reported pharmacologic or toxic side effects
[6]
  Kd: 7 nM

## human annexin V covalently conjugated with IRDye78: annexin V reacted under aqueous conditions with the N-hydroxysuccinimide ester of IRDye78, a near-infrared fluorophore
[7]
  near-infrared fluorescence signal localisation in ischemic heart: several areas of infarcted myocardium within the area at risk
